Test [1] relates to Staphylococcus aureus Newman. Nature of the test: Staphylococcus infection in mice (body weight, CFU recovered from kidney). Format: in vivo. The note with it: for Ability of mice to clear an infection by Staphylococcus aureus Newman; bacteria quantified as CFU recovered from a standard sample of kidney: FIG. 6.
The subject of test [2] is Salmonella typhimurium. The test is described as follows: Inhibition of growth of Salmonella typhimurium (optical density of culture). The conditions noted are these: after 9-20 h, No compound 0.943.
Procedure: (§1) Activity of substances in the inhibition of growth of bacteria. Bacteria including the species Escherichia coli, Bacillus pumilus, Salmonella sp., Micrococcus luteus and Staphylococcus carnosus are cultured in appropriate media (Luria broth for all except S. canosus). Overnight cultures are mixed with fresh medium to reach an optical density at 600 nM of ca. 0.1 AU. These cultures are mixed with solutions of substances to be tested at concentrations ranging from 100 μM to 0.05 μM in a microtitre plate. The growth of the culture is monitored by measuring the optical density at various times after the addition of the inhibitor. Reduction in the rate of increase in optical density corresponds to an inhibition of bacterial growth.
Test [3] relates to Staphylococcus carnosus. The test is described as follows: Inhibition of growth of Staphylococcus carnosus (optical density of culture). The conditions noted are these: after 9-20 h, No compound 0.887.
Procedure: as §1
Test [4] has as its system Salmonella typhimurium phagocytosed by J774 murine cells. The test is described as follows: Intracellular killing of S. Typhimurium by mouse macrophage cellline J 774 A.1 (surviving CFU). Format: cell-based. The note with it: FIG. 4; compared with azithromycin. The protocol: Substances may act directly on bacteria, or they may act to promote the killing of the bacteria by phagocytes. To measure this effect, cultures murine macrophages are incubated with a test bacteria and the number of bacteria surviving are counted in terms of the viable colony forming units (CFU). The method for determining the rate of phagocytosis is as follows:
Intracellular killing of S. Typhimurium by mouse macrophage cellline J 774 A.1 • seed a monolayer of cells in 200 μl Media into the wells of a 96 well plates • incubate O/N 37° C. • remove medium and add fresh medium • add Bacteria (Salmonella typhimurium) e.g. 5 μl of 1:100 diluted O/N culture (MOI=10) (=10^8 cfu/ml) • centrifuge 10 min 800 g (2000 rpm) • incubate 20-30 minutes at 37° C. (phagocytosis) • remove media • wash 1-2× with PBS • add medium with 100 μg/ml Gentamicin, stock: 10 mg/ml (=1:100) • incubate 45′ at 37° C. • wash 2× with PBS • add fresh medium (200 μl/well) • add compounds to test • incubate 2-3 hours at 37° C. • remove medium • lyse cells with water: add 200 μl H2O incubate 10′, push a few times through 27 gauge needle using a 1 ml syringe • plate […] 1:10 dilution onto LB-agar plates (=1:100 dil)
Overnight culture of Salmonella thyphimurium=˜[…]
Overnight culture of Staphylococcus carnosus=˜5×10^9 cfu/ml MOI=50 (=5 μl of 1:10 dil. O/N culture)
MOI=Multiplicity of Infection […]

Test [5] deals with mice treated with dextran sulfate (colitis). Nature of the test: Dextran sulfate colitis in mice (inflammatory bowel disease model). Format: in vivo, mouse (C57 BLK6 or BALBc). The note with it: N=8; for Body weight and clinical score of BALBc mice at day 9 after commencing 2.5% DSS in water: FIG. 18. An excerpt: The potential efficacy of a Compound for Inflammatory bowel disease may be modeled as follows. C57 BLK6 or BALBc mice are provided with drinking water containing 2.5% or 2.8% dextran sulfate. Animals are weighed and observed for signs of intestinal disturbance daily. Signs include diarrhea or occult blood. Compound is formulated by mixing with a solution of 0.1 up to 1% citric acid depending on concentration. Compound is provided by oral gavage daily.

In the case of `CC[C@H]1OC(=O)[C@H](C)[C@@H](O[C@H]2C[C@@](C)(OC)[C@@H](O)[C@H](C)O2)[C@H](C)[C@@H](O[C@@H]2O[C@H](C)C[C@H](N(C)C)[C@H]2O)[C@](C)(O)C[C@@H](C)CN(C)[C@H](C)[C@@H](O)[C@]1(C)O` [Azithromycin, reference compound], in test [1], the “Ability of mice to clear an infection by Staphylococcus aureus Newman; bacteria quantified as CFU recovered from a standard sample of kidney” value (“Ability of mice to clear an infection” for short) is listed as “decreases recovered bacteria in a dose responsive manner”.

Turning to `CC[C@H]1OC(=O)[C@H](C)[C@@H](O[C@H]2C[C@@](C)(OC)[C@@H](O)[C@H](C)O2)[C@H](C)[C@@H](O[C@@H]2O[C@H](C)CC(N(C)C)[C@H]2O[N+](=O)[O-])[C@](C)(O)C[C@@H](C)CN(C)[C@H](C)[C@@H](OC(C)=O)[C@]1(C)O` (stereo partly shown) [Compound E-2], the “Absorbance of culture medium at 600 nm” value worked out at 0.452 in test [2] (Conc. 0.8 μM); 0.441 in test [2] (Conc. 2 μM); 0.410 in test [2] (Conc. 3 μM); 0.382 in test [2] (Conc. 6 μM); 0.621 in test [2] (Conc. 13 μM); 0.314 in test [2] (Conc. 25 μM). Also, the “Absorbance of culture medium at 600 nm” value in test [2] (Conc. 50 μM) was found to be 0.168; in test [2] (Conc. 100 μM), 0.251; in test [3] (Conc. 0.8 μM) it was 0.760; in test [3] (Conc. 2 μM), 0.766; in test [3] (Conc. 3 μM) it was 0815; in test [3] (Conc. 6 μM), 0.626. Besides, the “Absorbance of culture medium at 600 nm” value in test [3] (Conc. 13 μM) was 0.542; in test [3] (Conc. 25 μM), 0.456; in test [3] (Conc. 50 μM), 0.425; in test [3] (Conc. 100 μM), 0.395. In addition, the “Ability of mice to clear an infection” value in test [1] is “decreases recovered bacteria in a dose responsive manner”. In addition, in test [4], the “Killing of phagocytosed Salmonella typhimurium by murine macrophages” value was “stimulates the killing of bacterial cells by macrophages”. In test [5] (FIG. 17), the “Body weight of BALBc mice at day 7 after commencing 2.5% DSS in water” value is listed as “protects against weight loss”.

As for `CCCCCCCCCCN(C)C1C[C@@H](C)O[C@@H](O[C@@H]2[C@@H](C)[C@H](O[C@H]3C[C@@](C)(OC)[C@@H](O)[C@H](C)O3)[C@@H](C)C(=O)O[C@H](CC)[C@@](C)(O)[C@H](O)[C@@H](C)N(C)C[C@H](C)C[C@@]2(C)O)[C@@H]1O` (stereo partly shown) [Compound E-3], in test [5], the “Body weight and clinical score of BALBc mice at day 9 after commencing 2.5% DSS in water” value is listed as “stimulate inflammation”.

On to `CCC(=O)O[C@@H]1[C@@H](C)N(C)C[C@H](C)C[C@@](C)(O)[C@H](O[C@@H]2O[C@H](C)C[C@H](N(C)C)[C@H]2O[N+](=O)[O-])[C@@H](C)[C@H](O[C@H]2C[C@@](C)(OC)[C@@H](O)[C@H](C)O2)[C@@H](C)C(=O)O[C@H](CC)[C@@]1(C)O` [Compound E-5], for which the “Absorbance of culture medium at 600 nm” value is on record as 0.574 in test [2] (Conc. 0.8 μM); 0.568 in test [2] (Conc. 2 μM); 0.511 in test [2] (Conc. 3 μM); 0.478 in test [2] (Conc. 6 μM); 0.437 in test [2] (Conc. 13 μM); 0.396 in test [2] (Conc. 25 μM). Moreover, the “Absorbance of culture medium at 600 nm” value in test [2] (Conc. 50 μM) is recorded as 0.395; in test [2] (Conc. 100 μM) it was 0.390; in test [3] (Conc. 0.8 μM), 0.819; in test [3] (Conc. 2 μM) it was 0.726; in test [3] (Conc. 3 μM), 0.805; in test [3] (Conc. 6 μM), 0.525. Besides, the “Absorbance of culture medium at 600 nm” value in test [3] (Conc. 13 μM) turned out to be 0.452; in test [3] (Conc. 25 μM) it was 0.403; in test [3] (Conc. 50 μM), 0.347; in test [3] (Conc. 100 μM), 0.302. Also, in test [1] (FIG. 5), the “Response of mice to an infection by Staphylococcus (recovery of weight)” value was “faster recovery of weight due to faster clearance of bacteria”. In addition, the “Ability of mice to clear an infection” value in test [1] is listed as “decreases recovered bacteria in a dose responsive manner”.

As for `CC[C@H]1OC(=O)[C@H](C)[C@@H](O[C@H]2C[C@@](C)(OC)[C@@H](O)[C@H](C)O2)[C@H](C)[C@@H](O[C@@H]2O[C@H](C)CC(N(C)C)[C@H]2OC(C)=O)[C@](C)(O)C[C@@H](C)CN(C)[C@H](C)[C@@H](O[N+](=O)[O-])[C@]1(C)O` (stereo partly shown) [Compound E-9], the “Absorbance of culture medium at 600 nm” value in test [2] (Conc. 0.8 μM) turned out to be 0.300; in test [2] (Conc. 2 μM), 0.272; in test [2] (Conc. 3 μM) it was 0.327; in test [2] (Conc. 6 μM), 0.348; in test [2] (Conc. 13 μM) it was 0.382; in test [2] (Conc. 25 μM), 0.395. The “Absorbance of culture medium at 600 nm” value in test [2] (Conc. 50 μM) is 0.319; in test [2] (Conc. 100 μM) it was 0.221; in test [3] (Conc. 0.8 μM) it was 0.765; in test [3] (Conc. 2 μM) it was 0.737; in test [3] (Conc. 3 μM), 0.830; in test [3] (Conc. 6 μM), 0.752. Further, the “Absorbance of culture medium at 600 nm” value amounted to 0.677 in test [3] (Conc. 13 μM), 0.426 in test [3] (Conc. 25 μM), 0.522 in test [3] (Conc. 50 μM) and 0.545 in test [3] (Conc. 100 μM).

For the compound `CCC(=O)O[C@@H]1C(N(C)C)C[C@@H](C)O[C@H]1O[C@@H]1[C@@H](C)[C@H](O[C@H]2C[C@@](C)(OC)[C@@H](OC(=O)CC)[C@H](C)O2)[C@@H](C)C(=O)O[C@H](CC)[C@@](C)(O)[C@H](OC(=O)CC)[C@@H](C)N(C)C[C@H](C)C[C@@]1(C)OC(=O)CC` (stereo partly shown) [Compound E-51], the “Body weight and clinical score of BALBc mice at day 7 after commencing 2.5% DSS in water” value in test [5] (FIG. 19, weight greater than Vehicle) is listed as “protect against inflammation”.

Consider `CCCC(=O)O[C@@H]1C(N(C)C)C[C@@H](C)O[C@H]1O[C@@H]1[C@@H](C)[C@]2(O)O[C@@]1(C)C[C@@H](C)CN(C)[C@H](C)[C@@H](O)[C@](C)(O)[C@@H](CC)OC(=O)[C@@H]2C` (stereo partly shown) [Compound E-238], for which the “Body weight and clinical score of BALBc mice at day 9 after commencing 2.5% DSS in water” value in test [5] is “stimulate inflammation”.

On to `CCCC(=O)O[C@@H]1[C@@H](C)N(C)C[C@H](C)C[C@@](C)(O)[C@H](O[C@@H]2O[C@H](C)CC(N(C)C)[C@H]2O)[C@@H](C)[C@H](O[C@H]2C[C@@](C)(OC)[C@@H](OC(=O)CCC)[C@H](C)O2)[C@@H](C)C(=O)O[C@H](CC)[C@@]1(C)O` (stereo partly shown) [Compound E-553], for which the “Body weight and clinical score of BALBc mice at day 9 after commencing 2.5% DSS in water” value in test [5] is “stimulate inflammation”.
